Four compounds from ChEMBL document CHEMBL1201862, “PubChem BioAssay data set” (2004) can be followed below.

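96-well plates; 48 h exposure; 5 concentrations. Endpoints by linear interpolation between flanking doses. Not reached: highest tested concentration assigned. GI50 marks 50% less growth.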 The source made the active and inactive calls. Cut-off read from the data, not from the text of the source: active = GI50 up to about 1.1 µM and inactive = higher.

Test systems include CAKI-1; HCT-15; OVCAR-8; OVCAR-4; SF-268; A498; T47D; UACC-62; MCF7; SK-MEL-2; Hs-578T; RXF 393; SK-OV-3; ACHN; HL-60; COLO 205; DU-145; IGROV-1; SK-MEL-28; SF-295.
What all share (experiment): growth of human tumour cells (NCI), 48 h

As to `[O-][n+]1onc2c1-c1nonc1CC2`, the GI50 in the test with CAKI-1 is 69.3 µM (inactive); in the test with HCT-15 it was 62.8 µM; in the test with OVCAR-8 it was 46 µM (inactive); with OVCAR-4, 30.3 µM (inactive); in the test on SF-268, 36.5 µM (inactive); with A498 it was 31.7 µM (inactive). Also, the GI50 with T47D is 83 µM (inactive); in the test with UACC-62, 36.6 µM (inactive); in the test with MCF7, 28.5 µM (inactive); in the test with SK-MEL-2, 24.1 µM (inactive); in the test on Hs-578T it was 26.7 µM (inactive); in the test with RXF 393, 36.1 µM (inactive). In addition, the GI50 with SK-OV-3 was 47.9 µM (inactive); with ACHN, 27.1 µM (inactive); in the test with HL-60, 34.5 µM (inactive); with COLO 205, 48.5 µM (inactive); in the test with DU-145 it was 51.2 µM (inactive); in the test on IGROV-1 it was 38.8 µM (inactive). The figures for the GI50 in the test with SK-MEL-28 and with SF-295 were 55.2 µM (inactive) and > 100 µM (inactive), respectively.

Consider `CCCCC(=O)OC[n+]1ccc2c(C)c3[nH]c4ccc(OC)cc4c3c(C)c2c1`, for which the GI50 was 1.02 µM (active) in the test with CAKI-1; 0.166 µM in the test with HCT-15; 0.171 µM (active) with OVCAR-8; 0.796 µM (active) in the test with OVCAR-4; 0.344 µM (active) with SF-268; 0.923 µM (active) in the test on A498. For the same compound, the GI50 is 1.03 µM (active) in the test with T47D; 0.979 µM (active) with UACC-62; 0.168 µM (active) in the test with MCF7; 2.32 µM (inactive) in the test with SK-MEL-2; 1.07 µM (active) with Hs-578T; 0.929 µM (active) in the test with RXF 393. Moreover, the GI50 was 0.656 µM (active) in the test on SK-OV-3; 0.0938 µM (active) in the test on ACHN; 0.422 µM (active) in the test on HL-60; 0.267 µM (active) in the test with COLO 205; 0.76 µM (active) in the test with DU-145; 0.284 µM (active) with IGROV-1. Also, the GI50 with SK-MEL-28 was 1.32 µM (inactive); in the test with SF-295 it was 0.356 µM (active).

As to `CO[C@@H]1C=C[C@@]23c4cc5c(cc4C(O)N(CC2O)C3C1)OCO5` (stereo not given in full), the GI50 in the test with CAKI-1 was 3.58 µM (inactive); in the test with HCT-15, 3.8 µM; with OVCAR-8, 3.63 µM (inactive); in the test with OVCAR-4, 2.8 µM (inactive); with SF-268, 7.36 µM (inactive); in the test on A498, 3.15 µM (inactive). Also, the GI50 with T47D is 3.35 µM (inactive); in the test with UACC-62, 3.13 µM (inactive); in the test with MCF7, 1.98 µM (inactive); in the test with SK-MEL-2, 2.99 µM (inactive); in the test on Hs-578T, 22.6 µM (inactive); in the test on RXF 393, 5.62 µM (inactive). Further, the GI50 in the test on SK-OV-3 is 3.66 µM (inactive); in the test on ACHN it was 3.33 µM (inactive); with HL-60 it was 1.8 µM (inactive); with COLO 205, 2.94 µM (inactive); in the test on DU-145 it was 3.81 µM (inactive); in the test on IGROV-1, 3.78 µM (inactive). Also, the GI50 is 5.04 µM (inactive) with SK-MEL-28 and 5.41 µM (inactive) with SF-295.

As for `CC(=O)OCC1OC(SC2=NC(=O)/C(=C/c3ccccc3)S2)C(OC(C)=O)C(OC(C)=O)C1OC(C)=O` (stereo not given), the GI50 in the test on CAKI-1 was 3.78 µM (inactive); in the test on HCT-15 it was 59 µM; in the test on OVCAR-8, 14.6 µM (inactive); in the test on OVCAR-4, 32 µM (inactive); in the test with SF-268, 20.1 µM (inactive); in the test on A498 it was 29 µM (inactive). The GI50 was 24.2 µM (inactive) in the test with T47D; 21.1 µM (inactive) with UACC-62; 18.9 µM (inactive) in the test on MCF7; 80.4 µM (inactive) in the test on SK-MEL-2; 23.3 µM (inactive) with Hs-578T; 26 µM (inactive) with RXF 393. In addition, the GI50 with SK-OV-3 was 45.7 µM (inactive); with ACHN it was 48.2 µM (inactive); with HL-60, 14.5 µM (inactive); in the test with COLO 205, 45.6 µM (inactive); with DU-145 it was 95.1 µM (inactive); with IGROV-1, 35.8 µM (inactive). Besides, the GI50 was 30.8 µM (inactive) in the test on SK-MEL-28 and 62.8 µM (inactive) with SF-295.
